Measurements: PubChem BioAssay (NCI)
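Cells were grown in 96-well plates and exposed to each compound for 48 hours at five concentrations; endpoints were interpolated linearly between bracketing concentrations, or set to the highest concentration if not reached. At the GI50, growth is halved. TGI: total growth inhibition.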

These compounds were tested on M14 melanoma (assay: DTP human tumour cell line panel, 48 h).
Work on `Cc1csc2nc(-c3ccc(Cl)c([N+](=O)[O-])c3)c(/C=N/N=C(N)N)n12` yielded a TGI of 3.38 µM.
For `CN(CCCNC(=O)c1nn(-c2ccc(Cl)cc2Cl)c2c1Cc1ccccc1-2)CCCNC(=O)c1nn(-c2ccc(Cl)cc2Cl)c2c1Cc1ccccc1-2`, the TGI was 3.47 µM.
With `Fc1ccccc1C1SCc2nc3cc4ccccc4cc3n21` (stereo unspecified) the TGI was over 100 µM.
With `CC(C)C1=CC23CCC4C(C)(C(=O)O)CCCC4(C)C2CC1C1C(=O)N(c2ccc(C(=O)O)cc2)C(=O)C13` (stereo unspecified) the TGI was over 100 µM.
For `COc1cccc(NC(=O)C(C#N)=C(SC)SC)c1`, the TGI was over 100 µM.
Compound `COc1ccc2cc(-c3c(-c4ccncc4)nc(-c4ccc(S(C)=O)cc4)n3C)ccc2c1` (stereo unspecified) has a GI50 of over 25 µM and a TGI of over 25 µM.

Each compound was assayed on MALME-3M melanoma (assay: DTP human tumour cell line panel, 48 h).
Work on `Cc1csc2nc(-c3ccc(Cl)c([N+](=O)[O-])c3)c(/C=N/N=C(N)N)n12` yielded a TGI of 4.38 µM.
For `CN(CCCNC(=O)c1nn(-c2ccc(Cl)cc2Cl)c2c1Cc1ccccc1-2)CCCNC(=O)c1nn(-c2ccc(Cl)cc2Cl)c2c1Cc1ccccc1-2`, the TGI was 3.35 µM.
`Fc1ccccc1C1SCc2nc3cc4ccccc4cc3n21` (stereo unspecified) showed a TGI of over 100 µM.
`CC(C)C1=CC23CCC4C(C)(C(=O)O)CCCC4(C)C2CC1C1C(=O)N(c2ccc(C(=O)O)cc2)C(=O)C13` (stereo unspecified) gave a TGI of over 100 µM.
For `COc1cccc(NC(=O)C(C#N)=C(SC)SC)c1`, the TGI was over 100 µM.
With `COc1ccc2cc(-c3c(-c4ccncc4)nc(-c4ccc(S(C)=O)cc4)n3C)ccc2c1` (stereo unspecified) the GI50 was 24.5 µM and the TGI was over 25 µM.

The compounds below were run on MCF7 breast (assay: DTP human tumour cell line panel, 48 h).
Compound `Cc1csc2nc(-c3ccc(Cl)c([N+](=O)[O-])c3)c(/C=N/N=C(N)N)n12` has a TGI of 3.67 µM.
With `Fc1ccccc1C1SCc2nc3cc4ccccc4cc3n21` (stereo unspecified) the TGI was over 100 µM.
Compound `CC(C)C1=CC23CCC4C(C)(C(=O)O)CCCC4(C)C2CC1C1C(=O)N(c2ccc(C(=O)O)cc2)C(=O)C13` (stereo unspecified) has a TGI of over 100 µM.
`COc1cccc(NC(=O)C(C#N)=C(SC)SC)c1` gave a TGI of over 100 µM.
In the case of `COc1ccc2cc(-c3c(-c4ccncc4)nc(-c4ccc(S(C)=O)cc4)n3C)ccc2c1` (stereo unspecified), the GI50 is reported as over 19.6 µM and the TGI is reported as over 25 µM.

What follows are compounds tested on MDA-MB-231 breast (assay: DTP human tumour cell line panel, 48 h).
`Cc1csc2nc(-c3ccc(Cl)c([N+](=O)[O-])c3)c(/C=N/N=C(N)N)n12` showed a TGI of 3.68 µM.
`CN(CCCNC(=O)c1nn(-c2ccc(Cl)cc2Cl)c2c1Cc1ccccc1-2)CCCNC(=O)c1nn(-c2ccc(Cl)cc2Cl)c2c1Cc1ccccc1-2` showed a TGI of 3.18 µM.
`Fc1ccccc1C1SCc2nc3cc4ccccc4cc3n21` (stereo unspecified) was tested, and the TGI was over 100 µM.
Work on `CC(C)C1=CC23CCC4C(C)(C(=O)O)CCCC4(C)C2CC1C1C(=O)N(c2ccc(C(=O)O)cc2)C(=O)C13` (stereo unspecified) yielded a TGI of over 100 µM.
`COc1cccc(NC(=O)C(C#N)=C(SC)SC)c1` was tested, and the TGI was over 100 µM.
With `COc1ccc2cc(-c3c(-c4ccncc4)nc(-c4ccc(S(C)=O)cc4)n3C)ccc2c1` (stereo unspecified) the GI50 was over 25 µM and the TGI was over 25 µM.

Each compound was assayed on MDA-MB-435 (assay: DTP human tumour cell line panel, 48 h).
`Cc1csc2nc(-c3ccc(Cl)c([N+](=O)[O-])c3)c(/C=N/N=C(N)N)n12` showed a TGI of 3.13 µM.
Compound `CN(CCCNC(=O)c1nn(-c2ccc(Cl)cc2Cl)c2c1Cc1ccccc1-2)CCCNC(=O)c1nn(-c2ccc(Cl)cc2Cl)c2c1Cc1ccccc1-2` has a TGI of 2.57 µM.
`Fc1ccccc1C1SCc2nc3cc4ccccc4cc3n21` (stereo unspecified) showed a TGI of over 100 µM.
For `CC(C)C1=CC23CCC4C(C)(C(=O)O)CCCC4(C)C2CC1C1C(=O)N(c2ccc(C(=O)O)cc2)C(=O)C13` (stereo unspecified), the TGI was over 100 µM.
`COc1cccc(NC(=O)C(C#N)=C(SC)SC)c1` gave a TGI of over 100 µM.
`COc1ccc2cc(-c3c(-c4ccncc4)nc(-c4ccc(S(C)=O)cc4)n3C)ccc2c1` (stereo unspecified) gave a GI50 of 14.6 µM and a TGI of over 25 µM.

These compounds were tested on MDA-N (assay: DTP human tumour cell line panel, 48 h).
Work on `Cc1csc2nc(-c3ccc(Cl)c([N+](=O)[O-])c3)c(/C=N/N=C(N)N)n12` yielded a TGI of 2.69 µM.
`CN(CCCNC(=O)c1nn(-c2ccc(Cl)cc2Cl)c2c1Cc1ccccc1-2)CCCNC(=O)c1nn(-c2ccc(Cl)cc2Cl)c2c1Cc1ccccc1-2` showed a TGI of 3.17 µM.
With `Fc1ccccc1C1SCc2nc3cc4ccccc4cc3n21` (stereo unspecified) the TGI was over 100 µM.
With `CC(C)C1=CC23CCC4C(C)(C(=O)O)CCCC4(C)C2CC1C1C(=O)N(c2ccc(C(=O)O)cc2)C(=O)C13` (stereo unspecified) the TGI was over 100 µM.
`COc1cccc(NC(=O)C(C#N)=C(SC)SC)c1` showed a TGI of over 100 µM.

Each compound was assayed on MOLT-4 leukemia (assay: DTP human tumour cell line panel, 48 h).
`CN(CCCNC(=O)c1nn(-c2ccc(Cl)cc2Cl)c2c1Cc1ccccc1-2)CCCNC(=O)c1nn(-c2ccc(Cl)cc2Cl)c2c1Cc1ccccc1-2` showed a TGI of 3.98 µM.
`Fc1ccccc1C1SCc2nc3cc4ccccc4cc3n21` (stereo unspecified) showed a TGI of over 100 µM.
For `CC(C)C1=CC23CCC4C(C)(C(=O)O)CCCC4(C)C2CC1C1C(=O)N(c2ccc(C(=O)O)cc2)C(=O)C13` (stereo unspecified), the TGI was over 100 µM.
Compound `COc1cccc(NC(=O)C(C#N)=C(SC)SC)c1` has a TGI of over 100 µM.
For `COc1ccc2cc(-c3c(-c4ccncc4)nc(-c4ccc(S(C)=O)cc4)n3C)ccc2c1` (stereo unspecified), the GI50 was 17.2 µM and the TGI was over 25 µM.

These compounds were tested on NCI-H226 lung (assay: DTP human tumour cell line panel, 48 h).
With `Fc1ccccc1C1SCc2nc3cc4ccccc4cc3n21` (stereo unspecified) the TGI was over 100 µM.
